The source of these data is publication PMC9319549, “Synthesis and Biological Evaluation of Imadazo[1,2-a]pyrazines as Anticancer and Antiviral Agents through Inhibition of CDK9 and Human Coronavirus” (Pharmaceuticals, 2022).

The structures appear in SMILES notation. Where two headings read alike, the source gives them in different places.

Series [1] concerns the target T1, CDK9 (Homo sapiens, UniProt P50750).
T1 construct: purchased BPS Biosciences (San Diego, CA, USA) 79628
The note with it: identified by virtual screening from natural resources; cited from earlier work.

The test system of a further series is breast cancer (MCF7). Put plainly: MTT cytotoxicity assay, MCF7. In kind it is cell-based. The note with it: Homo sapiens, MCF7, 48 h, read-out: IC50 MCF7. As for the experimental part: (§1) The in vitro cytotoxicity of our compounds was determined using MTT assay. […] The results were analyzed using GraphPad Prism 5.0, and cytotoxicity was expressed as IC50 for three individual experiments.
(Tetrazolium assays rely on reduction of a dye to a coloured formazan, in cell work by metabolically active cells.)

Series [2] has as its system chronic myelogenous leukaemia. Nature of the series: cells. The note with it: K652, 48 h, read-out: IC50 K652. As for the experimental part:
as §1

Series [3] relates to colorectal cancer (HCT116). Put plainly: cells. The following applies: Homo sapiens, HCT-116, 48 h, read-out: IC50 HCT116. On the procedure: as §1
For series [4], the target named is T1, CDK9. Nature of the series: biochemical. The following applies: biochemical assay; mean ± standard deviation of three individual experiments; read-out: CDK9 Inhibitory Activity IC50. On the procedure: In this study, all the newly synthesized compounds were assessed against CDK9 in a biochemical assay, and dinaciclib was used as a standard compound.
The luminescence was measured using a microplate reader. The results were analyzed using GraphPad Prism 5.0, and the kinase inhibitory activity was expressed as IC50 for three individual experiments. In the assay, dinaciclib was used as a positive control, and DMSO was used as negative control.

Series [5] relates to MCF7, HCT116 and K652 cell lines. Nature of the series: MTT cytotoxicity assay, average of three cell lines. It counts as cell-based. The note with it: read-out: average IC50 of three cell lines. On the procedure: as §1
The nature of series [6]: Cytotoxicity on target cells in the antiviral assay (crystal violet). As for the experimental part: The results were analyzed using GraphPad Prism 5.0, and cytotoxicity was expressed as IC50 for three individual experiments. In the assay, ribavirin was used as a positive control, and DMSO was used as a negative control.
The subject of a further series is human coronavirus 229E. Nature of the series: Cytopathic effect (CPE) inhibition assay, crystal violet method. It counts as cell-based. The following applies: read-out: IC50 (229E). On the procedure:
The anti-coronaviral activity of the new compounds was assessed using a cytopathic effect (CPE) inhibition assay against human coronavirus 229E. Ribavirin (well-established antiviral agent) was used as standard in this assay.

In a further series the test system is normal cells FHC. Nature of the series: cells. The following applies: for average selectivity over three cancer cells: normal cells FHC vs MCF7, HCT116, K652; for IC50: read-out: FHC IC50. On the procedure: as §1

T1 sequence (P50750 whole entry): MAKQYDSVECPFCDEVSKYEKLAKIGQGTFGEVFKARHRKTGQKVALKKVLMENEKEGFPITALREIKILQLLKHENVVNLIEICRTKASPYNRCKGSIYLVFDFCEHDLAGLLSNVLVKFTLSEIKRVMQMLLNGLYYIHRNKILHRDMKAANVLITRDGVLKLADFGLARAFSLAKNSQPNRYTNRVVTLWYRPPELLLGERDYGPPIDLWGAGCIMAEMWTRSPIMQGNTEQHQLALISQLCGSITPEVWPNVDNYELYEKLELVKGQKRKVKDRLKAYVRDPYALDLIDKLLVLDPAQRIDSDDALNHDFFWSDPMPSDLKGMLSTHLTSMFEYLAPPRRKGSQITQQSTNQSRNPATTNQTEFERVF
T1 sequence (O60563 whole entry partner): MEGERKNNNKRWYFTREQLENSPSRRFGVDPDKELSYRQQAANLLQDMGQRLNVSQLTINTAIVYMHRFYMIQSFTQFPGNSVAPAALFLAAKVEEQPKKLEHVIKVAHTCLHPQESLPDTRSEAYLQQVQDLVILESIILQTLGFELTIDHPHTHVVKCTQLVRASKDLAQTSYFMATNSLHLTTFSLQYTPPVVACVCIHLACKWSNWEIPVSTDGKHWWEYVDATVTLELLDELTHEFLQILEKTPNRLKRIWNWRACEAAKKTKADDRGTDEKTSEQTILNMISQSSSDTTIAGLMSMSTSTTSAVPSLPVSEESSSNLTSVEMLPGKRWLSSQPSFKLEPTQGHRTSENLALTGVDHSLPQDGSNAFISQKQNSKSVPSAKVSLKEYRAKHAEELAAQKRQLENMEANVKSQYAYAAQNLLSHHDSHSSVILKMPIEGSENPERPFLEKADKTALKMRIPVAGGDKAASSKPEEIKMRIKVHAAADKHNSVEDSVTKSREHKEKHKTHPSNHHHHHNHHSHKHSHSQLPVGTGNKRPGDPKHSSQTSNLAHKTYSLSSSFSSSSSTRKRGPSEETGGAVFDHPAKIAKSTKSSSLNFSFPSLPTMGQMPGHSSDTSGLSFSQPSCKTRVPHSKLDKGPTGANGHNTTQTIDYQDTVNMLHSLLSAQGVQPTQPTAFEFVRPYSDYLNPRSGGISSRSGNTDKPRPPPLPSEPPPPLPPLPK

As to `Oc1ccc(-c2nc3cnccn3c2NCc2cccs2)cc1O` [Compound 10], the IC50 (usually the concentration needed to halve the response being measured) at CDK9 [1] was 5.12 µM.
In the case of `Oc1ccc(-c2nc3cnccn3c2NC2CCCCC2)cc1O` [Compound 2b, 4-(3-(Cyclohexylamino)imidazo[1,2-a]pyrazin-2-yl)benzene-1,2-diol], the IC50 worked out at 119 ± 1.82 µM with breast cancer (MCF7), 54.2 ± 0.96 µM in series [2], 105 ± 1.78 µM in series [3] and 890 ± 16 nM at CDK9 [4].
As for `CC(C)(C)Nc1c(-c2ccccc2)nc2cnccn12` [Compound 1a, N-(Tert-butyl)-2-phenylimidazo[1,2-a]pyrazin-3-amine], the IC50 in the series on breast cancer (MCF7) came out at 405 ± 5.05 µM; in series [2] it was 310 ± 4.49 µM; in [3] it was 597 ± 8.25 µM; at CDK9 [4] it was 1670 ± 25 nM; in [5], 437 µM.
Regarding `CC(C)(C)Nc1c(-c2ccc(O)c(O)c2)nc2cnccn12` [Compound 2a, 4-(3-(Tert-butylamino)imidazo[1,2-a]pyrazin-2-yl)benzene-1,2-diol], the melting point – broadly, the temperature of the solid-liquid transition – lay within 270 to 272 °C. The IC50 with breast cancer (MCF7) was 76.8 ± 1.08 µM. Moreover, in series [2], the IC50 was 22.8 ± 0.37 µM. The IC50 in series [3] came out at 35.9 ± 0.56 µM. Further, at CDK9 [4], the IC50 turned out to be 1140 ± 19 nM.
Consider `c1cc(-c2nc3cnccn3c2NC2CCCCC2)ccn1` [Compound 3b, N-Cyclohexyl-2-(pyridin-4-yl)imidazo[1,2-a]pyrazin-3-amine], for which the IC50 with breast cancer (MCF7) came to 31.7 ± 0.44 µM; with human coronavirus 229E, 57 µM; in [2], 67.8 ± 1.08 µM; in series [3], 8.96 ± 0.14 µM; at CDK9 [4], 410 ± 7 nM. For the same molecule, the CC50 (usually the concentration that lowers cell viability or growth by half) in series [6] was found to be 407 µM.
`COc1ccc(Nc2c(-c3ccc(O)c(O)c3)nc3cnccn23)cc1` [Compound 2d, 4-(3-((4-Methoxyphenyl)amino)imidazo[1,2-a]pyrazin-2-yl)benzene-1,2-diol] gave a melting point of 150 to 152 °C. The IC50 in the series on breast cancer (MCF7) came to 80.4 ± 1.31 µM. Further, in series [2], the IC50 was 136 ± 2.59 µM. In addition, the IC50 in series [3] was found to be 162 ± 2.41 µM. In addition, the IC50 at CDK9 [4] amounted to 2030 ± 40 nM. Moreover, the IC50 in series [5] was found to be 126 µM.
With `c1ccc(CNc2c(-c3ccsc3)nc3cnccn23)cc1` [Compound 4c, N-Benzyl-2-(thiophen-3-yl)imidazo[1,2-a]pyrazin-3-amine], the IC50 came to 55.8 ± 0.8 µM with breast cancer (MCF7), 69.2 ± 3.89 µM in [2], 80.6 ± 1.26 µM in series [3] and 710 ± 12 nM at CDK9 [4].
On to `c1ccc(CNc2c(-c3ccncc3)nc3cnccn23)cc1` [Compound 3c, N-Benzyl-2-(pyridin-4-yl)imidazo[1,2-a]pyrazin-3-amine], for which the IC50 with breast cancer (MCF7) turned out to be 8.59 ± 0.12 µM; in the series on human coronavirus 229E it was 379 µM; in the series on normal cells FHC, 97.2 ± 1.58 µM; in [2], 4.45 ± 0.06 µM; in series [3] it was 7.96 ± 0.12 µM; on CDK9 [4], 160 ± 3 nM. Further, in series [5], the IC50 came out at 6.66 µM. The same molecule yielded a CC50 in series [6] of 472 µM. For the same molecule, the “average selectivity over three cancer cells” value (“average selectivity” for short) in the series on normal cells FHC is recorded as 15 fold.
On to `COc1ccc(Nc2c(-c3ccncc3)nc3cnccn23)cc1` [Compound 3d, N-(4-Methoxyphenyl)-2-(pyridin-4-yl)imidazo[1,2-a]pyrazin-3-amine], for which the IC50 with breast cancer (MCF7) amounted to 118 ± 1.17 µM; in [2] it was 46.6 ± 0.48 µM; in series [3] it was 27.9 ± 1.88 µM; at CDK9 [4], 800 ± 14 nM.
`c1ccc(-c2nc3cnccn3c2NC2CCCCC2)cc1` [Compound 1b, N-Cyclohexyl-2-phenylimidazo[1,2-a]pyrazin-3-amine]: the IC50 in the series on breast cancer (MCF7) turned out to be 3.01 ± 0.04 µM; in the series on human coronavirus 229E it was 146 µM; in the series on normal cells FHC, 123 ± 19.1 µM; in [2], 50.3 ± 0.8 µM; in series [3], 1.43 ± 0.02 µM; at CDK9 [4], 250 ± 4 nM. For the same molecule, in series [5], the IC50 was 18.2 µM. The molecule further had a CC50 in series [6] of 299 µM. Besides, the “average selectivity” value in the series with normal cells FHC is reported as 43 fold.
For `c1ccc(CNc2c(-c3ccccc3)nc3cnccn23)cc1` [Compound 1c, N-Benzyl-2-phenylimidazo[1,2-a]pyrazin-3-amine], the half-maximal inhibitory concentration (IC50) with breast cancer (MCF7) came out at 99 ± 1.39 µM; in series [2] it was 88.6 ± 8.25 µM; in series [3] it was 59.3 ± 5.05 µM; at CDK9 [4], 1010 ± 17 nM.
`NC(=O)c1ncn([C@@H]2O[C@H](CO)[C@@H](O)[C@H]2O)n1` [Ribavirin, reference compound]: in [6], half-maximal cytotoxicity (CC50) was put at 160 µM. In the series on human coronavirus 229E, the IC50 stood at 114 µM.
`COc1ccc(Nc2c(-c3ccsc3)nc3cnccn23)cc1` [Compound 4d, N-(4-Methoxyphenyl)-2-(thiophen-3-yl)imidazo[1,2-a]pyrazin-3-amine]: the concentration for half-maximal inhibition (IC50) in the series on breast cancer (MCF7) amounted to 141 ± 2.13 µM; in series [2] it was 87.2 ± 1.53 µM; in [3], 115 ± 1.93 µM; on CDK9 [4], 3160 ± 58 nM.
The like results for `COc1ccc(Nc2c(-c3ccccc3)nc3cnccn23)cc1` [Compound 1d, N-(4-Methoxyphenyl)-2-phenylimidazo[1,2-a]pyrazin-3-amine] were, in that order, 244 ± 3.62 µM, 77.4 ± 1.34 µM, 75.2 ± 1.24 µM and 1040 ± 19 nM.
For the molecule `CN[C@@H]1C[C@H]2O[C@@](C)([C@@H]1OC)n1c3ccccc3c3c4c(c5c6ccccc6n2c5c31)C(=O)NC4` [Staurosporine, reference compound], the IC50 with breast cancer (MCF7) turned out to be 18.4 ± 0.4 µM.
With `Oc1ccc(-c2nc3cnccn3c2NCc2ccccc2)cc1O` [Compound 2c, 4-(3-(Benzylamino)imidazo[1,2-a]pyrazin-2-yl)benzene-1,2-diol], the IC50 in the series on breast cancer (MCF7) was found to be 39.7 ± 0.62 µM; in series [2], 88.6 ± 1.09 µM; in series [3], 59.9 ± 1.04 µM; on CDK9 [4], 310 ± 6 nM.
For the molecule `CC(C)(C)Nc1c(-c2ccsc2)nc2cnccn12` [Compound 4a, N-(Tert-butyl)-2-(thiophen-3-yl)imidazo[1,2-a]pyrazin-3-amine], the IC50 in the series on breast cancer (MCF7) is 25.4 ± 0.32 µM; with normal cells FHC, 76.1 ± 1.11 µM; in series [2], 12.77 ± 0.06 µM; in series [3], 61.31 ± 0.12 µM; at CDK9 [4], 730 ± 11 nM. The “average selectivity” value in the series on normal cells FHC was determined as 3.5 fold.
As to `c1cn2c(NC3CCCCC3)c(-c3ccsc3)nc2cn1` [Compound 4b, N-Cyclohexyl-2-(thiophen-3-yl)imidazo[1,2-a]pyrazin-3-amine], the melting point was 170 to 172 °C. Further, in the series with breast cancer (MCF7), the IC50 was determined as 181 ± 2.63 µM. Also, the IC50 in series [2] was found to be 46.6 ± 0.76 µM. For the same molecule, in series [3], the IC50 was 27.9 ± 0.43 µM. The IC50 at CDK9 [4] stood at 1320 ± 6 nM.
Consider `CC(C)(C)Nc1c(-c2ccncc2)nc2cnccn12` [Compound 3a, N-(Tert-butyl)-2-(pyridin-4-yl)imidazo[1,2-a]pyrazin-3-amine], for which the IC50 in the series with breast cancer (MCF7) came out at 4.3 ± 0.5 µM; with human coronavirus 229E, 394 µM; with normal cells FHC, 196 ± 2.79 µM; in series [2], 46 ± 0.67 µM; in series [3] it was 2.69 ± 0.04 µM; on CDK9 [4], 260 ± 4 nM. Besides, the IC50 in [5] turned out to be 17.7 µM. Also, in [6], half-maximal cytotoxicity (CC50) was put at 940 µM. For the same molecule, in the series on normal cells FHC, the “average selectivity” value was found to be 41 fold.
